For experiment [1], the system named is thermal radiation pain (tail flick). Nature of the experiment: thermal radiation (tail flick) test on rats (analgesia). The conditions noted are these: Rattus norvegicus, 20 min, read-out: ED50 in the tail flick test. It is filed as in vivo, female Sprague Dawley rats. From the text:
Testing for analgesia using the tail flick test on rats
The analgesic effectiveness of the compounds to be used according to the invention was investigated in the thermal radiation (tail flick) test on rats using the method of D'Amour and Smith (J. Pharm. Exp. Ther. 72, 74-79 (1941). Female Sprague Dawley rats with a weight of 120-160 g were used for this purpose. The animals were placed individually in test cages and the bases of their tails were exposed to the focused thermal radiation from an electric lamp (Rhema Analgesiemeter for rats). The lamp intensity was adjusted so that the time from switching on the lamp until the sudden twitching away of the tail (latency of pain) was 3-6 seconds for untreated animals. Before the administration of the compounds to be used according to the invention, the animals were tested twice within five minutes and the average value of these measurements was calculated as the pre-test average. The pain measurement was made 20, 40 and 60 minutes after intravenous administration. […]. In order to determine the dosage-dependency, the compounds were administered in doses increasing logarithmically by a factor of 3-5, which included the threshold and the maximum effective dose each time. The ED50 values were determined from the number of analgesic animals by the method of Litchfield and Wilcoxon (J. Pharm. Exp. Ther. 96, 99-113, (1949)). The ED50 was calculated at the effective maximum 20 minutes after intravenous administration of the substance.
Background: Thermal pain tests record how soon the animal reacts.

Experiment [2] deals with phenylquinone-induced writhing. Put plainly: phenylquinone-induced writhing test on mice (analgesia). Format: in vivo, male NMRI mice. The conditions noted are these: Mus musculus, read-out: ED50 in the writhing test. The method, then:
Testing for analgesia using the writhing test on mice
Testing for analgesic effectiveness was performed using the phenylquinone-induced writhing test on mice (modified according to I. C. Hendershot, J. Forsaith, J. Pharmacol. Exp. Ther. 125, 237-240 (1959)). […]. For each dose of substance, groups of 10 animals received, 10 minutes after the intravenous administration of the compounds to be used according to the invention, 0.3 ml per mouse of an 0.02% aqueous solution of phenylquinone (phenylbenzoquinone: manufactured by Sigma, Deisenhofen; solution prepared with the addition of 5 % ethanol and kept on a water bath at 45° C.) administered intraperitoneally. The animals were placed individually in observation cages, and the number of pain-induced stretching movements (so-called writhing reactions=straightening of the body with stretching of the rear extremities) 5-20 minutes after the administration of phenylquinone was counted by means of a push-button counter. The ED50 values were calculated with a 95% confidence limit by means of regression analysis (evaluation program supplied by Martens EDV Service, Eckental) from the dose-dependent decrease in the writhing reactions, by comparison with control groups which were tested in parallel and which were treated with phenylquinone only.
For orientation: In writhing tests, fewer writhes than in controls are read as antinociception.

Experiment [3] can be described thus: analgesic effect (statement in words). Format: in vivo. The conditions noted are these: on its own or in combination with tramadol.
[4] abbreviates: intravenous, 20 minutes after administration, >150 % of pre-test average latency, rats.
Setting [5] is: intravenous, phenylquinone i.p. 10 minutes after compound, writhing counted 5-20 minutes after phenylquinone, mice.

Each structure is given as a SMILES string. Counter-ions that a name gives are not always drawn. Like-named read-outs stand apart in the source and are kept apart here.

As usually defined, the ED50 is the dose at which the effect has come halfway, by size or by number of responders. For the molecule `COc1cccc([C@@]2(O)CCCC[C@@H]2CN(C)C)c1.Cl` (racemic) [racemic tramadol hydrochloride, (1RS, 2RS)-2-dimethylaminomethyl-1-(3-methoxy-phenyl)-cyclohexanol hydrochloride, reference compound], the results for the ED50 in experiment [1] (iv) and in experiment [2] (iv) were 6.47 mg/kg and 3.59 mg/kg, respectively.

Regarding `CN(C)C[C@H]1CCCC[C@]1(O)c1cccc(O)c1` (relative stereo) [O-demethyltramadol], in experiment [3], the analgesic effect entry is “high analgesic effect”.

Consider `CN(C)C[C@H]1CCCC[C@]1(O)c1cccc(O)c1` [(+)-enantiomer of O-demethyltramadol hydrochloride, (+)-(1R, 2R)-3-(2-dimethyl-aminomethyl-1-hydroxy-cyclohexyl)-phenol hydrochloride], for which the figures for the ED50 in experiment [1] (setting [4]) and in experiment [2] (setting [5]) were 1.01 mg/kg and 0.489 mg/kg, respectively.

For the molecule `CN(C)C[C@@H]1CCCC[C@@]1(O)c1cccc(O)c1` [(-)-enantiomer of O-demethyltramadol hydrochloride, (-)-(1S, 25)-3-(2-dimethylaminomethyl-1-hydroxy-cyclohexyl)-phenol hydrochloride], the ED50 in experiment [1] (setting [4]) was above 10 mg/kg; in experiment [2] (setting [5]), 6.6 mg/kg.
